Source: article PMC7782499, “Progerinin, an optimized progerin-lamin A binding inhibitor, ameliorates premature senescence phenotypes of Hutchinson-Gilford progeria syndrome” (Communications Biology, 2021)

Tests used:
Lmna G609G/+ mouse = assay: Histology analysis (Masson Trichrome, H&E); assay type: in vivo; conditions: Lmna G609G/+ mice, oral 50 mg/kg daily, 8 weeks
Experimental: Tissue specimens were fixed in 4% PFA and embedded in paraffin. Paraffin blocks were sectioned and transferred onto adhesive-coated slides. After deparaffinization and rehydration, tissue sections were stained with Masson Trichrome. Histology analysis was performed by BioLead Inc. (Seoul, Korea).
Fig. S11. Histological analysis of age- matched Lmna+/+ mice (left), untreated Lamn G609G/+ mice (middle) and progerinin- treated LmnaG609G/+ mice (right, Lmna +/+: n = 4; un tr e at e d Lmna G609G/+: n = 6; pr o ge r in -treated LmnaG609G/+: n=6). A -C. Masson Trichrome staining for fibrosis analysis was performed after 8-week treatment. A. Reduction of fibrosis in heart after administration of progeirnin in L mn a G609G transgenic mice.
The collagen-rich fibrotic area (blue) is widely distributed in untreated LmnaG609G/+ mi c e compared to Lmna+/+ and progerin- treated LmnaG609G/+ mi c e. B. Fibrosis in liver of Lmna G609G transgenic mice was reduced by progerinin. C. Unt r eat ed LmnaG609G/+ mi c e show a relatively loose connection between blood vessel walls and tissues in lungs. D -E. Hematoxylin and Eosin (H&E) staining was performed to compare skin and bones of Lmna +/+ and LmnaG609G mice. Conditions of foot pad skin (D), vertebra (E), and femur (F) of Lmna +/+ and progerin-treated LmnaG609G/+ mice were better than those of untreated Lmna G609G/+ mice. […]

HGPS cells = assay: RT-PCR of progerin/prelamin A, CENP-A, IL-6, IL-8, BRCA1 transcripts; assay type: cell-based, human
Experimental: For RT-PCR, total cellular RNA was extracted using RNA extraction kit (Qiagen). Gene expression studies were performed using cDNA synthesized from total RNA with MMLV RT (Invitrogen, Carlsbad, USA) and random hexamers. PCR from genomic DNA was perform using DiaStar Taq DNA polymerase (SolGent, Daejeon, Korea) and 50 ng of cDNA. Wild-type prelamin A cDNA was synthesized by PCR amplification using a forward primer, 5′-[…]-3′ and a reverse primer, 5′-[…]-3′. The thermal cycling conditions were as follows: 94°C for 3 min (activation), 94°C for 1 min (denaturation), 61°C for 1 min (annealing) and 72°C for 42 sec (extension) up to 35 cycles. The PCR products were analyzed through 2% agarose electrophoresis and DNA was visualized by ethidium bromide staining and UV photography. Levels of other transcripts were also performed with the following oligonucleotide primers: CENP-A, 5′-[…]-3′ and 5′-[…]-3′; BRCA1, 5′-[…]-3′ and 5′-[…]-3′; IL-6, 5′-[…]-3′ and 5′-[…]-3′; IL-8, 5′-[…]-3′ and 5′-[…]-3′ and GAPDH 5′-[…]-3′ and 5′-[…]-3′.
Fig. S3. Chemical screening with JH4 derivatives (a total of 53 chemicals except JH010 and SLC -D011 were used). A. Summarized tables for effects of JH4 derivatives. ‘+’ means s t re ngt h of binding affinity or expression level after treatment of chemicals. […]

SMILES: CC1(C)Oc2cc3oc(=O)ccc3cc2C[C@@H]1OC/C=C/c1ccccc1 [SLC-D011]
- Fibrosis in heart and liver (Masson Trichrome) (Lmna G609G/+ mouse): reduced
- mRNA expression of progerin (HGPS cells): without alteration of mRNA expression of progerin
